The supplement of paper PMC10307832

Tests used:
Assay in all cases: relative viability (nuclei count vs DMSO), 5 days (fraction); higher = more cells survive
[1] = compound: CC1=CC(=NN1)NC2=CC(=NC(=N2)/C=C/C3=CC=CC=C3)N4CCN(CC4)C + C[C@]1(O)C[C@@H](c2nc(-c3ccc4ccc(-c5ccccc5)nc4c3)c3c(N)nccn32)C1 [Linsitinib] (partner 1 µM)
Summary of the method: (§1)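 Lung cancer cell lines were seeded in 1536-well plates and dosed by pin tool the next day, with either a single drug or a fixed anchor-drug dose combined with five library-drug doses (not always all listed) spaced in √10 steps. Five days later, one step fixed the cells and stained their nuclei (final 0.05% Triton X-100, 1% formaldehyde, 1 ug/ml Hoechst), and nuclei were counted on 4× images. Relative viability is the nuclei count in treated wells divided by the count in vehicle wells, and each value is the median of duplicate plates.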

[2] = compound: CC1=CC(=NN1)NC2=CC(=NC(=N2)/C=C/C3=CC=CC=C3)N4CCN(CC4)C + Cc1nc(NC(=O)N2CCC[C@H]2C(N)=O)sc1-c1ccnc(C(C)(C)C(F)(F)F)c1 [Alpelisib] (partner 2 µM)
Summary of the method: as §1

Obatoclax + Navitoclax = compound: COC1=CC(c2cc3ccccc3[nH]2)=N/C1=C\c1[nH]c(C)cc1C [Obatoclax] + CC1(C)CCC(c2ccc(Cl)cc2)=C(CN2CCN(c3ccc(C(=O)NS(=O)(=O)c4ccc(N[C@H](CCN5CCOCC5)CSc5ccccc5)c(S(=O)(=O)C(F)(F)F)c4)cc3)CC2)C1 [Navitoclax] (partner 0.5 µM)
Summary of the method: as §1

Obatoclax + Vorinostat = compound: COC1=CC(c2cc3ccccc3[nH]2)=N/C1=C\c1[nH]c(C)cc1C [Obatoclax] + O=C(CCCCCCC(=O)Nc1ccccc1)NO [Vorinostat] (partner 1 µM)
Summary of the method: as §1

| Cell Line | relative viability ([1]; first compound 0.08 µM) | relative viability ([1]; first compound 0.253 µM) | relative viability ([1]; first compound 0.8 µM) | relative viability ([1]; first compound 2.53 µM) | relative viability ([1]; first compound 8 µM) | relative viability ([2]; first compound 0.08 µM) | relative viability ([2]; first compound 0.253 µM) | relative viability ([2]; first compound 0.8 µM) | relative viability ([2]; first compound 2.53 µM) | relative viability ([2]; first compound 8 µM) | relative viability (Obatoclax + Navitoclax; first compound 0.01 µM) | relative viability (Obatoclax + Navitoclax; first compound 0.03162 µM) | relative viability (Obatoclax + Navitoclax; first compound 0.1 µM) | relative viability (Obatoclax + Navitoclax; first compound 0.3162 µM) | relative viability (Obatoclax + Navitoclax; first compound 1 µM) | relative viability (Obatoclax + Vorinostat; first compound 0.01 µM) | relative viability (Obatoclax + Vorinostat; first compound 0.03162 µM) | relative viability (Obatoclax + Vorinostat; first compound 0.1 µM) | relative viability (Obatoclax + Vorinostat; first compound 0.3162 µM) | relative viability (Obatoclax + Vorinostat; first compound 1 µM) |
| --- | --- | --- | --- | --- | --- | --- | --- | --- | --- | --- | --- | --- | --- | --- | --- | --- | --- | --- | --- | --- |
| NCI-H2087 | 0.982 | 0.909 | 0.965 | 0.723 | 0.203 | 1.11 | 1.04 | 1.07 | 0.965 | 0.135 | 0.9 | 0.857 | 0.866 | 0.438 | 0.196 | 0.61 | 0.81 | 0.931 | 0.671 | 0.723 |
| HOP-62 | 0.959 | 1.11 | 0.99 | 0.875 | 0.326 | 0.937 | 1.09 | 0.931 | 0.942 | 0.164 | 1.06 | 1.01 | 1.01 | 0.989 | 0.932 | 0.573 | 0.575 | 0.639 | 0.741 | 0.403 |
| EKVX | 1.02 | 1.13 | 1.1 | 0.788 | 0.144 | 0.856 | 1.09 | 0.941 | 0.675 | 0.167 | 0.86 | 0.618 | 0.98 | 0.924 | 0.922 | 0.747 | 0.592 | 0.765 | 0.725 | 0.649 |
| EMC-BAC-2 | 0.821 | 0.91 | 0.77 | 0.594 | 0.204 | 0.748 | 0.717 | 0.662 | 0.521 | 0.154 | 1.15 | 1.18 | 1.13 | 1.19 | 1.22 | 0.437 | 0.358 | – | 0.446 | 0.405 |
| HARA | 1.07 | 0.899 | 1.03 | 0.139 | 0.0705 | 0.858 | 0.85 | 0.974 | 0.121 | 0.0791 | 1.09 | 1.11 | 1.15 | 0.871 | 1.11 | 0.553 | 0.392 | 0.566 | 0.441 | 0.605 |
| LU99A | 0.489 | 0.485 | 0.466 | 0.228 | 0.138 | 0.459 | 0.514 | 0.324 | 0.157 | 0.129 | 0.855 | 0.788 | 0.831 | 0.501 | 0.545 | 0.557 | 0.459 | – | 0.463 | 0.224 |
| LK-2 | 0.522 | 0.876 | 0.75 | 0.31 | 0.104 | 1.1 | 0.668 | 0.966 | 0.605 | 0.211 | 0.885 | 0.822 | 0.957 | 0.864 | 1.02 | 0.3 | 0.247 | 0.253 | 0.296 | 0.411 |
| NCI-H441 | 0.483 | 0.584 | 0.444 | 0.196 | 0.0922 | 0.632 | 0.578 | 0.484 | 0.157 | 0.121 | 0.775 | 0.535 | 0.832 | 0.546 | 0.259 | 0.768 | 0.837 | 0.728 | 0.733 | 0.645 |
| NCI-H23 | 0.61 | 0.641 | 0.58 | 0.313 | 0.163 | 0.55 | 0.859 | 0.704 | 0.265 | 0.12 | 0.907 | 0.733 | 0.847 | 0.537 | 0.813 | 0.593 | 0.755 | 0.569 | 0.653 | 0.316 |
| NCI-H647 | 1.06 | 1.25 | 1.21 | 0.0813 | 0.0644 | 0.927 | 1.11 | 0.782 | 0.05 | 0.0332 | 1.11 | 0.974 | 0.633 | 0.477 | 0.229 | 0.667 | 0.523 | 0.652 | 0.304 | 0.161 |
| 201T | 1.02 | 1.07 | 1 | 0.897 | 0.819 | 1.04 | 1.08 | 1.01 | 0.931 | 0.793 | 1.23 | 1.2 | 1.18 | 1.21 | 1.31 | 0.954 | 0.834 | 0.968 | 0.959 | 1.06 |
| NCI-H1734 | 0.907 | 0.867 | 0.917 | 0.478 | 0.196 | 0.601 | 0.695 | 0.692 | 0.375 | 0.189 | 0.745 | 0.841 | – | 0.723 | 0.668 | 0.819 | 0.887 | 0.814 | 0.741 | 0.31 |
| NCI-H596 | 0.941 | 1.18 | 1.16 | 0.757 | 0.409 | 0.5 | 0.577 | 0.565 | 0.367 | 0.121 | 0.898 | 0.74 | 0.775 | 0.519 | 0.583 | 0.555 | 0.467 | 0.543 | 0.585 | 0.296 |
